According to patent publication US20020193564A1, “Oligomeric chaperone proteins” (priority 1999, published 2002):

Assays:
E. coli SV6 groEL673 = assay: In vivo complementation of ts groEL673 at 43° C.; assay type: cell-based; settings: plasmids pJC, relative to growth at 30° C.
Description: (§1) In vivo Complementation Experiments.
(§2) Complementation experiments were performed by transforming electro-competent SV2 or SV6 cells with the pJC series of expression vectors and plating an aliquot of the transformation reactions directly at 43° C. The percentage of viable cells relative to the growth at 30° C. was determined. A representative number of clones which grew at 43° C. were incubated in absence of any selective markers at permissive temperature. After prolonged growth the loss of the pJC plasmids and the ts phenotype were verified. Each experiment was performed in duplicate. Plasmids carrying no groE genes or encoding the GroE proteins were used as negative or positive controls, respectively.

[1] = tested on: Lorist6 (bacteriophage λ origin vector); assay: Effect of over-expression on Lorist6 replication; assay type: cell-based, E. coli; settings: over-expression from pJC
Description: Effect on Lorist6 Replication of Over-Expressing of MC7.
The effect of over-expressing Gp31 proteins from pJC vector series on the replication of the bacteriophage λ origin vector, Lorist6 (Gibson, T. J., Rosenthal, A. & Waterston, R. H. (1987) Gene 53, 283-286) in TG1 (Gibson, T. J. (1984) Ph.D. thesis, University of Cambridge, U.K) or SV1 (Georgopoulos, C., Hendrix, R. W., Casjens, S. R. & Kaiser, A. D. (1973) J. Mol. Biol. 76, 45-60) cells was determined essentially as described (Chatellier, J., Hill, F., Lund, P. & Fersht, A. R. (1998) Proc. Natl. Acad. Sci. U.S.A. 95, 9861-9866).

E. coli SV2 groEL44 = assay: In vivo complementation of ts groEL44 at 43° C.; assay type: cell-based; settings: plasmids pJC, relative to growth at 30° C.
Description: as §1, §2

[2] = target: T1, heat- and dithiothreitol-denatured mtMDH (Sus scrofa, UniProt P00346); assay: In vitro refolding of denatured mtMDH; assay type: biochemical, pig; settings: 25° C., chaperone alone, FIG. 7b
T1 construct: Boehringer-Mannheim); purchased Boehringer-Mannheim; host or cells: pig heart
T1 sequence (P00346 25-338): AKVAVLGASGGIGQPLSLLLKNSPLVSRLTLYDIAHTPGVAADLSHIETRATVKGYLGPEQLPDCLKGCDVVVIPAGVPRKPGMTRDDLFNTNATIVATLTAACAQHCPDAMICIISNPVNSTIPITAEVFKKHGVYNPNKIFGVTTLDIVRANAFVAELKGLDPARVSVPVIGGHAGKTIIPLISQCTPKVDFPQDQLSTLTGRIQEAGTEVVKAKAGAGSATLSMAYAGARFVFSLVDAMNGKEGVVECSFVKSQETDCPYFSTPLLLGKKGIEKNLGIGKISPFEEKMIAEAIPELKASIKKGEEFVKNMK
Description: In vitro Refolding Experiments.
Refolding assays of pig heart mitochondrial malate dehydrogenase (mtMDH; Boehringer-Mannheim) and aggregation protection were carried out essentially as described (Peres Ben-Zvi, A. P., Chatellier, J., Fersht, A. R. & Goloubinoff, P. (1998) Proc. Natl. Acad. Sci. U.S.A. 95, 15275-15280). The concentrations of MC7 used were between 8-16 μM (reporter to protomer).

bacteriophage λ = assay: Growth of bacteriophage λ in transformed groEL strains; assay type: cell-based, bacteriophage λ (b2cI) in E. coli
Source text: The E. Coli strains used in this study were: C41(DE3), a mutant of BL21(DE3) capable of expressing toxic genes (Miroux, B. & Walker, J. E. (1996) J. Mol. Biol. 260, 289-298); SV2 (B178groEL44), SV3 (B178groEL59) and SV6 (B178groEL673): isogenic strains carrying temperature-sensitive alleles of groEL; SV1(=B178) (Georgopoulos, C., Hendrix, R. W., Casjens, S. R. & Kaiser, A. D. (1973) J. Mol. Biol. 76, 45-60), A190 (ΔgroEL::kan^R) [pBAD-EL] (Ivic, A., Olden, D., Wallington, E. J. & Lund, P. A. (1997) Gene 194, 1-8), and TG1 (Gibson, T. J. (1984) Ph.D. thesis, University of Cambridge, U.K). Bacteriophage λb2cI (Zeilstra-Ryalls, J., Fayet, O., Baird, L. & Georgopoulos, C. (1993) J. Bacteriol. 175, 1134-1143) was used according to standard methods (Arber, W., Enquist, L., Hohn, B., Murray, N. E. & Murray, K. (1983) in Lambda II., ed. R. W. Hendrix, J. W. r., F. W. Stahl and R. A. Weisberg (Cold Spring Harbor Laboratory, Cold Spring Harbor, N.Y.), pp. 433-466); plaque formation was assayed at 30° C. T4D0, a derivative of bacteriophage T4 (Zeilstra-Ryalls, J., Fayet, O., Baird, L. & Georgopoulos, C. (1993) J. Bacteriol. 175, 1134-1143), was used according to standard methods (Karam, J. D. (1994) Molecular biology of bacteriophage T4. (American Society for Microbiology, Washington, D.C.)); plaque formation was assayed at 37° C.

“GroEL(1-548): key molecular chaperone in Escherichia coli, 14 subunits of 57.5 kD in two seven membered rings” was tested, and the “Relative colony forming ability, SV6 groEL673” value (E. coli SV6 groEL673) was 1, the “replication of the Lorist6 plasmid” value [1] was “inhibit the replication” and the “Relative colony forming ability, SV2 groEL44” value (E. coli SV2 groEL44) was 1. For the same substance, the “rate of refolding denatured mtMDH” value [2] was 0.04 nM/min, the “Growth of bacteriophage λ, SV1 (groEL^+)” value (bacteriophage λ; 30° C., SV1) was “− (no visible plaques (<10^−4))” and the “Growth of bacteriophage λ, SV2 groEL44” value (bacteriophage λ; 30° C., SV2) was “+ (10-fold fewer plaques, or plaque size reduced relative to wild-type groEL^+ strain, or both)”. The “Growth of bacteriophage λ, SV3 GroEL59” value (bacteriophage λ; 30° C., SV3) was “++ (5-fold fewer plaques relative to wild-type groEL^+ strain, or both)”, the “Growth of bacteriophage λ, SV6 groEL673” value (bacteriophage λ; 30° C., SV6) was “+/− (10^2-fold fewer plaques and plaque size reduced relative to wild-type groEL^+ strain)” and the “Complementation of groEL mutant strains for bacteriophage λ growth” value (bacteriophage λ; 30° C., groEL mutant strains) was “weak complementation”. For the same substance, the “Effect of over-expression on λ growth / plaque counts” value (bacteriophage λ; SV1 (groE^+)) was “suffices to inhibit λ growth”.
